± gives the standard deviation of the averaged measurements.
Key:
Conditions in all cases: treatment time: 3 days
UT-SCC-40 [1] = experiment: maximal % inhibition of viability relative to DMSO; higher = stronger effect
Method: (§1)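 HNSCC cell lines (500 cells/well, 384-well) were cultured on plastic, on top of (2D) or embedded (3D) in Matrigel or human leiomyoma matrix Myogel (500 ug/mL; Myogel 3D mixed with rat collagen I). Cells were treated for 3 days with 5 ten-fold concentrations of each drug, and viability was read by CellTiter-Glo. Viability was normalised to DMSO and benzethonium chloride controls and fitted with the FIMM DSRT pipeline to give IC50 (nM), maximal % inhibition and DSS. Suffixes _1/_2/_3 are replicates. Only inhibition-mode (IC50) fits are kept.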

UT-SCC-24B = experiment: as above
Method: as §1

UT-SCC-42B [2] = experiment: as above
Method: as §1

UT-SCC-73 [3] = experiment: as above
Method: as §1

UT-SCC-8 [4] = experiment: as above
Method: as §1

UT-SCC-28 [5] = experiment: as above
Method: as §1

UT-SCC-81 [6] = experiment: as above
Method: as §1

UT-SCC-44 [7] = experiment: as above
Method: as §1

UT-SCC-14 = experiment: as above
Method: as §1

UT-SCC-106A [8] = experiment: as above
Method: as §1

UT-SCC-42A [9] = experiment: as above
Method: as §1

UT-SCC-40 [10] = experiment: drug sensitivity score (DSS); higher = more sensitive; extreme values may be limits of the assay
Method in brief: (§2)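 Three growth formats were used for HPV-negative HNSCC cell lines in 384-well plates at 500 cells/well: bare plastic, wells coated with Matrigel or Myogel (500 µg/mL), and embedding in Matrigel or Myogel plus rat collagen I. Compounds were added at five 10-fold concentrations, and after 3 days CellTiter-Glo 2.0 luminescence was recorded and normalised to vehicle (0.1% DMSO) and cell-killing control wells. IC50, maximal inhibition and drug sensitivity score came from percent-inhibition dose–response fitting in the FIMM pipeline.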

UT-SCC-42B [11] = experiment: as above
Method in brief: as §2

UT-SCC-73 [12] = experiment: as above
Method in brief: as §2

UT-SCC-8 [13] = experiment: as above
Method in brief: as §2

UT-SCC-28 [14] = experiment: as above
Method in brief: as §2

UT-SCC-81 [15] = experiment: as above
Method in brief: as §2

UT-SCC-44 [16] = experiment: as above
Method in brief: as §2

UT-SCC-106A [17] = experiment: as above
Method in brief: as §2

UT-SCC-42A [18] = experiment: as above
Method in brief: as §2

[19] = culture condition: embedded in Matrigel
[20] = culture condition: embedded in Myogel + collagen I
[21] = culture condition: on top of Matrigel
[22] = culture condition: on top of Myogel
[23] = culture condition: plastic 2D (no matrix)

CO[C@H]1C[C@@H]2CC[C@@H](C)[C@@](O)(O2)C(=O)C(=O)N2CCCC[C@H]2C(=O)O[C@H]([C@H](C)C[C@@H]2CC[C@@H](OCCO)[C@H](OC)C2)CC(=O)[C@H](C)/C=C(\C)[C@@H](O)[C@@H](OC)C(=O)[C@H](C)C[C@H](C)/C=C/C=C/C=C/1C [Everolimus]
maximal % inhibition of viability (UT-SCC-40 [1]; [19]): 27.2 ± 25%
maximal % inhibition of viability (UT-SCC-40 [1]; [20]): 33.3 ± 4.4%
maximal % inhibition of viability (UT-SCC-40 [1]; [21]): 23.3 ± 5.5%
maximal % inhibition of viability (UT-SCC-40 [1]; [22]): 20.2 ± 10%
maximal % inhibition of viability (UT-SCC-40 [1]; [23]): 21.6 ± 8.3%
maximal % inhibition of viability (UT-SCC-24B; [19]): 28.7 ± 6.1%
maximal % inhibition of viability (UT-SCC-24B; [20]): 44.8 ± 5.3%
maximal % inhibition of viability (UT-SCC-24B; [21]): 18.1 ± 0.91%
maximal % inhibition of viability (UT-SCC-24B; [22]): 30.1 ± 8.6%
maximal % inhibition of viability (UT-SCC-24B; [23]): 24.9 ± 3%
maximal % inhibition of viability (UT-SCC-42B [2]; [19]): 14.8 ± 5.8%
maximal % inhibition of viability (UT-SCC-42B [2]; [21]): 14.4 ± 2.9%
maximal % inhibition of viability (UT-SCC-42B [2]; [22]): 10.9 ± 2.4%
maximal % inhibition of viability (UT-SCC-42B [2]; [23]): 12.6 ± 3.1%
maximal % inhibition of viability (UT-SCC-73 [3]; [19]): 22.8 ± 3.8%
maximal % inhibition of viability (UT-SCC-73 [3]; [20]): 46.1 ± 20%
maximal % inhibition of viability (UT-SCC-73 [3]; [21]): 26 ± 4.4%
maximal % inhibition of viability (UT-SCC-73 [3]; [22]): 34.8 ± 1.5%
maximal % inhibition of viability (UT-SCC-73 [3]; [23]): 28 ± 2.5%
maximal % inhibition of viability (UT-SCC-8 [4]; [19]): 39.1 ± 2.8%
maximal % inhibition of viability (UT-SCC-8 [4]; [20]): 36.4 ± 12%
maximal % inhibition of viability (UT-SCC-8 [4]; [21]): 36.6 ± 9.4%
maximal % inhibition of viability (UT-SCC-8 [4]; [22]): 46.9 ± 14%
maximal % inhibition of viability (UT-SCC-8 [4]; [23]): 44.7 ± 11%
maximal % inhibition of viability (UT-SCC-28 [5]; [19]): 28.6 ± 11%
maximal % inhibition of viability (UT-SCC-28 [5]; [20]): 27.7 ± 7.6%
maximal % inhibition of viability (UT-SCC-28 [5]; [21]): 28.2 ± 6.3%
maximal % inhibition of viability (UT-SCC-28 [5]; [23]): 28.1 ± 8.8%
maximal % inhibition of viability (UT-SCC-81 [6]; [19]): 43.5 ± 14%
maximal % inhibition of viability (UT-SCC-81 [6]; [20]): 54.1 ± 1.6%
maximal % inhibition of viability (UT-SCC-81 [6]; [21]): 39.4 ± 3.5%
maximal % inhibition of viability (UT-SCC-81 [6]; [22]): 53.2 ± 3.5%
maximal % inhibition of viability (UT-SCC-81 [6]; [23]): 46.8 ± 3.7%
maximal % inhibition of viability (UT-SCC-44 [7]; [19]): 30.9 ± 17%
maximal % inhibition of viability (UT-SCC-44 [7]; [20]): 45 ± 2.1%
maximal % inhibition of viability (UT-SCC-44 [7]; [21]): 34 ± 2.7%
maximal % inhibition of viability (UT-SCC-44 [7]; [22]): 37.7 ± 4.2%
maximal % inhibition of viability (UT-SCC-44 [7]; [23]): 33.1 ± 5.5%
maximal % inhibition of viability (UT-SCC-14; [19]): 58 ± 10%
maximal % inhibition of viability (UT-SCC-14; [20]): 50.9 ± 5.5%
maximal % inhibition of viability (UT-SCC-14; [21]): 47.6 ± 5.8%
maximal % inhibition of viability (UT-SCC-14; [22]): 42.6 ± 0.36%
maximal % inhibition of viability (UT-SCC-14; [23]): 46.4 ± 8.9%
maximal % inhibition of viability (UT-SCC-106A [8]; [19]): 30.8 ± 12%
maximal % inhibition of viability (UT-SCC-106A [8]; [20]): 20.6 ± 4.6%
maximal % inhibition of viability (UT-SCC-106A [8]; [21]): 40.7 ± 13%
maximal % inhibition of viability (UT-SCC-106A [8]; [22]): 21.3 ± 5%
maximal % inhibition of viability (UT-SCC-106A [8]; [23]): 50.1 ± 11%
maximal % inhibition of viability (UT-SCC-42A [9]; [19]): 17.3 ± 9.2%
maximal % inhibition of viability (UT-SCC-42A [9]; [20]): 32.2 ± 2.5%
maximal % inhibition of viability (UT-SCC-42A [9]; [21]): 34.3 ± 6%
maximal % inhibition of viability (UT-SCC-42A [9]; [22]): 33.1 ± 5%
maximal % inhibition of viability (UT-SCC-42A [9]; [23]): 29.9 ± 2.9%
drug sensitivity score (UT-SCC-40 [10]; [19]): 3.83 ± 6 DSS
drug sensitivity score (UT-SCC-40 [10]; [20]): 3.13 ± 3.1 DSS
drug sensitivity score (UT-SCC-40 [10]; [21]): 2.1 ± 1.3 DSS
drug sensitivity score (UT-SCC-40 [10]; [22]): 1.8 ± 1.9 DSS
drug sensitivity score (UT-SCC-40 [10]; [23]): 1.73 ± 1.6 DSS
drug sensitivity score (UT-SCC-42B [11]; [19]): 0 DSS
drug sensitivity score (UT-SCC-42B [11]; [21]): 0.733 ± 0.67 DSS
drug sensitivity score (UT-SCC-42B [11]; [22]): 0.433 ± 0.38 DSS
drug sensitivity score (UT-SCC-42B [11]; [23]): 0.133 ± 0.12 DSS
drug sensitivity score (UT-SCC-73 [12]; [19]): 2.37 ± 1.2 DSS
drug sensitivity score (UT-SCC-73 [12]; [20]): 8.4 ± 7.2 DSS
drug sensitivity score (UT-SCC-73 [12]; [21]): 3.93 ± 1.3 DSS
drug sensitivity score (UT-SCC-73 [12]; [22]): 4.27 ± 1.7 DSS
drug sensitivity score (UT-SCC-73 [12]; [23]): 3.23 ± 0.51 DSS
drug sensitivity score (UT-SCC-8 [13]; [19]): 5.3 ± 2.3 DSS
drug sensitivity score (UT-SCC-8 [13]; [20]): 4.2 ± 6.5 DSS
drug sensitivity score (UT-SCC-8 [13]; [21]): 5.8 ± 6 DSS
drug sensitivity score (UT-SCC-8 [13]; [22]): 7.9 ± 6 DSS
drug sensitivity score (UT-SCC-8 [13]; [23]): 6.57 ± 3.2 DSS
drug sensitivity score (UT-SCC-28 [14]; [19]): 3.57 ± 1.1 DSS
drug sensitivity score (UT-SCC-28 [14]; [20]): 3.37 ± 1.5 DSS
drug sensitivity score (UT-SCC-28 [14]; [21]): 2.63 ± 1.4 DSS
drug sensitivity score (UT-SCC-28 [14]; [23]): 4.63 ± 1.6 DSS
drug sensitivity score (UT-SCC-81 [15]; [19]): 7.87 ± 6.4 DSS
drug sensitivity score (UT-SCC-81 [15]; [20]): 9.2 ± 0.62 DSS
drug sensitivity score (UT-SCC-81 [15]; [21]): 5 ± 0.76 DSS
drug sensitivity score (UT-SCC-81 [15]; [22]): 7.07 ± 1.8 DSS
drug sensitivity score (UT-SCC-81 [15]; [23]): 7.8 ± 0.44 DSS
drug sensitivity score (UT-SCC-44 [16]; [19]): 2.47 ± 3.5 DSS
drug sensitivity score (UT-SCC-44 [16]; [20]): 5.4 ± 0.36 DSS
drug sensitivity score (UT-SCC-44 [16]; [21]): 6.83 ± 1.1 DSS
drug sensitivity score (UT-SCC-44 [16]; [22]): 7.67 ± 0.12 DSS
drug sensitivity score (UT-SCC-44 [16]; [23]): 5.07 ± 2 DSS
drug sensitivity score (UT-SCC-106A [17]; [19]): 1.27 ± 0.31 DSS
drug sensitivity score (UT-SCC-106A [17]; [20]): 2.77 ± 0.81 DSS
drug sensitivity score (UT-SCC-106A [17]; [21]): 1.53 ± 1.4 DSS
drug sensitivity score (UT-SCC-106A [17]; [22]): 1.33 ± 0.6 DSS
drug sensitivity score (UT-SCC-106A [17]; [23]): 7.3 ± 6 DSS
drug sensitivity score (UT-SCC-42A [18]; [19]): 0.933 ± 1.1 DSS
drug sensitivity score (UT-SCC-42A [18]; [20]): 3.87 ± 0.76 DSS
drug sensitivity score (UT-SCC-42A [18]; [21]): 2.6 ± 0.4 DSS
drug sensitivity score (UT-SCC-42A [18]; [22]): 3.27 ± 0.83 DSS
drug sensitivity score (UT-SCC-42A [18]; [23]): 2.07 ± 0.91 DSS
